The record followed here is patent US9603833B2, “Benzene or thiophene derivative and use thereof as VAP-1 inhibitor” (R-Tech Ueno, Ltd., priority 2008, dated 2017).

pIC50: −log10 of the molar value. Counter-ions that a name gives are not always drawn.

For experiment [1], the target named is human VAP-1 enzyme (SSAO) (Homo sapiens (Human), UniProt Q16853). Description: Inhibitory effect on human VAP-1 enzyme (SSAO), radiochemical-enzyme assay using 14C-benzylamine. It counts as biochemical. The note with it: human VAP-1 expressed in a cell, cell extract; 14C-benzylamine 1×10^−5 mol/L; 37° C., 2 hours. Here is the method: (§1) The compounds of the present invention obtained in Production Examples were examined for the inhibitory effect on human and rat VAP-1 enzyme (SSAO) by the following method.
(§2) The VAP-1 enzyme (SSAO) activity in both human and rat was measured by a radiochemical-enzyme assay using ^14C-benzylamine as an artificial substrate. Human or rat VAP-1 was cloned from the cDNA library and expressed in a cell. The cell extract was preincubated with a test compound solution (final concentration 1×10^−7-1×10^−10 mol/L) at room temperature for 20 minutes. Then, ^14C-benzylamine (final concentration 1×10^−5 mol/L) was added, and the mixture was incubated at a final volume of 200 μL at 37° C. for 2 hours. The enzyme reaction was stopped by addition of 2 mol/L (200 μL) citric acid. The oxidation product was extracted with 1 mL toluene/ethyl acetate (1:1), and the radioactivity thereof was measured by a liquid scintillation counter.

In experiment [2] the target is rat VAP-1 enzyme (SSAO) (Rattus norvegicus (Rat), UniProt O08590). Description: Inhibitory effect on rat VAP-1 enzyme (SSAO), radiochemical-enzyme assay using 14C-benzylamine. The format is biochemical. The note with it: rat VAP-1 expressed in a cell, cell extract; 14C-benzylamine 1×10^−5 mol/L; 37° C., 2 hours. Here is the method: as §1, §2
Sequence of rat VAP-1 enzyme (SSAO) (O08590 whole entry): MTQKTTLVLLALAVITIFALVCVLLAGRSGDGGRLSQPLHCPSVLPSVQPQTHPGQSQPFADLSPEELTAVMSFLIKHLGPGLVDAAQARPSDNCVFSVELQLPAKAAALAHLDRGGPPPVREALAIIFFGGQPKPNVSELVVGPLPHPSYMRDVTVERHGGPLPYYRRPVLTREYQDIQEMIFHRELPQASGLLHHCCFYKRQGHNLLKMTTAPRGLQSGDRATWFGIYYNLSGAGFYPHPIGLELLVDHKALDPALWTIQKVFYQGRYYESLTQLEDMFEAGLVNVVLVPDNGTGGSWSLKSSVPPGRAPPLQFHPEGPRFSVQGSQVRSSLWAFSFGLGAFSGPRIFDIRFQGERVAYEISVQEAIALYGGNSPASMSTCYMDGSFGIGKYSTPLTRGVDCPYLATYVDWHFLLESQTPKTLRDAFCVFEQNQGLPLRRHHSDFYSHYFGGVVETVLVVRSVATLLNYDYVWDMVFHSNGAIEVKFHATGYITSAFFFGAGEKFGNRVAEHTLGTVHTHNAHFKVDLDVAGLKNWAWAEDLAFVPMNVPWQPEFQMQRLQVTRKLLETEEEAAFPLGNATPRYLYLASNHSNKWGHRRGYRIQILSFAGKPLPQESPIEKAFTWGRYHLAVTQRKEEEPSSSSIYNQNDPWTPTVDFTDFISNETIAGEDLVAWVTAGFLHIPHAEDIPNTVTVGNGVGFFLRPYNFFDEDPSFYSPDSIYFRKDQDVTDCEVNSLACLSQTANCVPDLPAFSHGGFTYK

Sequence of human VAP-1 enzyme (SSAO) (Q16853 whole entry): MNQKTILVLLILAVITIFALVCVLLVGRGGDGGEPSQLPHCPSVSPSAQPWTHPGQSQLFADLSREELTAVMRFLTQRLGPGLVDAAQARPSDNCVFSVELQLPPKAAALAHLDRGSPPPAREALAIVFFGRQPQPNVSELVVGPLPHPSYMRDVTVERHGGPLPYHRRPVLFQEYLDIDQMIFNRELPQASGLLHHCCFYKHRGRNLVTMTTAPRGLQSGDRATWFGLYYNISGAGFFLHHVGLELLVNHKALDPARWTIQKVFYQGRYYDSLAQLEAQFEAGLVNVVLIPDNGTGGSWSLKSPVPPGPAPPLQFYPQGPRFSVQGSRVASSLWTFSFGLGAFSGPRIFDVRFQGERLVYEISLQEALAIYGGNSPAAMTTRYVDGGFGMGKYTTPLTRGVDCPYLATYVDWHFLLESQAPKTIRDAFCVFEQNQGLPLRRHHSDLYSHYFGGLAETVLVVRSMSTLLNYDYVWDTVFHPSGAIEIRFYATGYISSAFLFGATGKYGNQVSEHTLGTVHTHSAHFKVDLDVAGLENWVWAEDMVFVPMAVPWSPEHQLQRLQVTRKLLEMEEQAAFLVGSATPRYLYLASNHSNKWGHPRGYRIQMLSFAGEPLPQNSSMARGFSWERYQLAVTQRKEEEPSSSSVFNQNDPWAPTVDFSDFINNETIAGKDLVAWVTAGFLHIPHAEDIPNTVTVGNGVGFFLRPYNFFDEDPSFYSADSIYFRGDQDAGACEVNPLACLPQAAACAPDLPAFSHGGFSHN

As a reminder, the pIC50 is the negative decadic logarithm of the IC50, by convention in mol/L. Low values mean a large IC50, high ones a small IC50. On to `CC(=O)N1CCN(c2ccc(CCc3ccc(COC(=O)NN)cc3F)nc2)CC1` [Production Example 113, 4-{2-[5-(4-acetylpiperazin-1-yl)pyridin-2-yl]ethyl}-3-fluorobenzyl hydrazinecarboxylate trihydrochloride], for which the figures for the pIC50 in experiment [1] and in experiment [2] were 9.05 and 9.15, respectively.
As for `CCN(CC)c1ccc(CCc2ccc(CC(=O)NN)cc2)cn1` [Production Example 85, 2-(4-{2-[6-(diethylamino)pyridin-3-yl]ethyl}phenyl)acetohydrazide trihydrochloride], the pIC50 in experiment [1] was 7.80; in experiment [2], 8.72.
As to `NNC(=O)Cc1ccc(CCc2csc(C3CCNCC3)n2)cc1` [Production Example 20, 2-{4-[2-(2-piperidin-4-yl-1,3-thiazol-4-yl)ethyl]phenyl}acetohydrazide dihydrochloride], the pIC50 in experiment [1] is 7.63; in experiment [2], 8.29.
For the compound `CC(=O)N1CCN(c2ccc(CCc3ccc(CCOC(=O)NN)s3)nc2)CC1` [Production Example 115, 2-(5-{2-[5-(4-acetylpiperazin-1-yl)pyridin-2-yl]ethyl}thiophen-2-yl)ethyl hydrazinecarboxylate], the pIC50 in experiment [1] was 8.40; in experiment [2] it was 8.00.
On to `CCN(CC)c1ccc(CCc2ccc(CC(=O)NN)cc2)nc1` [Production Example 88, 2-(4-{2-[5-(diethylamino)pyridin-2-yl]ethyl}phenyl)acetohydrazide trihydrochloride], for which the pIC50 in experiment [1] was 7.99; in experiment [2], 9.05.
As to `CC(=O)N1CCN(c2ccc(CCc3csc(CCCOC(=O)NN)c3)nc2)CC1` [Production Example 124, 3-(4-{2-[5-(4-acetylpiperazin-1-yl)pyridin-2-yl]ethyl}thiophen-2-yl)propylhydrazinecarboxylate], the pIC50 in experiment [1] is 8.33; in experiment [2], 8.26.
Turning to `CC(=O)N1CCN(c2ccc(CCc3ccc(CNC(=O)NN)cc3)nc2)CC1` [Production Example 109, N-(4-{2-[5-(4-acetylpiperazin-1-yl)pyridin-2-yl]ethyl}benzyl)hydrazinecarboxamide trihydrochloride], the pIC50 in experiment [1] was 8.43; in experiment [2], 8.85.
The like results for `NNC(=O)Cc1ccc(CCc2ccc(N3CCNCC3)cn2)cc1` [Production Example 86, 2-{4-[2-(5-piperazin-1-ylpyridin-2-yl)ethyl]phenyl}acetohydrazide tetrahydrochloride] were, in that order, 8.01 and 9.00.
On to `NNC(=O)Cc1ccc(CCc2ccc(N3CCCC3)nc2)cc1` [Production Example 44, 2-{4-[2-(6-pyrrolidin-1-ylpyridin-3-yl)ethyl]phenyl}acetohydrazide trihydrochloride], for which the pIC50 in experiment [1] was 7.74; in experiment [2], 8.27.
For `CC(=O)N1CCN(c2ccc(CCc3cccc(COC(=O)NN)c3)nc2)CC1` [Production Example 111, 3-{2-[5-(4-acetylpiperazin-1-yl)pyridin-2-yl]ethyl}benzyl hydrazinecarboxylate trihydrochloride], the negative-log IC50 (pIC50) in experiment [1] was 9.30; in experiment [2] it was 9.40.
For the compound `CC(=O)N1CCN(c2cnc(CCc3ccc(CC(=O)NN)cc3)cn2)CC1` [Production Example 101, 2-(4-{2-[5-(4-acetylpiperazin-1-yl)pyrazin-2-yl]ethyl}phenyl)acetohydrazide trihydrochloride], the values for the pIC50 in experiment [1] and in experiment [2] were 8.47 and 8.68, respectively.
In the case of `CCN(C)c1ccc(CCc2ccc(CC(=O)NN)cc2)cn1` [Production Example 89, 2-[4-(2-{6-[ethyl(methyl)amino]pyridin-3-yl}ethyl)phenyl]acetohydrazide trihydrochloride], the pIC50 in experiment [1] is 7.81; in experiment [2] it was 9.05.
For `CCN(CC)c1ccc(CCc2ccc(CC(=O)NN)cc2)cc1` [Production Example 30, 2-(4-{2-[4-(diethylamino)phenyl]ethyl}phenyl)acetohydrazide dihydrochloride], in that order: 7.89 and 8.66.
For the compound `NNC(=O)Cc1ccc(CCc2ccc(N3CCOCC3)nc2)cc1` [Production Example 12, {4-[2-(6-morpholin-4-ylpyridin-3-yl)ethyl]phenyl}acetohydrazide dihydrochloride], the pIC50 in experiment [1] was 7.68; in experiment [2], 8.96.
Consider `NNC(=O)Cc1ccc(CCc2ccc(N3CCNCC3)s2)cc1` [Production Example 74, 2-{4-[2-(5-piperazin-1-ylthiophen-2-yl)ethyl]phenyl}acetohydrazide trihydrochloride], for which the pIC50 in experiment [1] is 7.91; in experiment [2], 8.39.
In the case of `CCCN(C)c1ccc(CCc2ccc(CC(=O)NN)cc2)cn1` [Production Example 90, 2-[4-(2-{6-[methyl(propyl)amino]pyridin-3-yl}ethyl)phenyl]acetohydrazide trihydrochloride], the pIC50 in experiment [1] is 7.66; in experiment [2], 8.85.
Turning to `CC(=O)N1CCN(c2ccc(CCc3ccc(CCC(=O)NN)cc3)nc2)CC1` [Production Example 119, 3-(4-{2-[5-(4-acetylpiperazin-1-yl)pyridin-2-yl]ethyl}phenyl)propanehydrazide trihydrochloride], the pIC50 is 8.33 in experiment [1] and 8.06 in experiment [2].
Take `NNC(=O)Cc1ccc(CCc2cncc(N3CCNCC3)c2)cc1` [Production Example 102, 2-{4-[2-(5-piperazin-1-ylpyridin-3-yl)ethyl]phenyl}acetohydrazide tetrahydrochloride]: the pIC50 was 7.71 in experiment [1] and 8.03 in experiment [2].
For `CCCN(CCC)c1ccc(CCc2ccc(CC(=O)NN)cc2)cn1` [Production Example 92, 2-(4-{2-[6-(dipropylamino)pyridin-3-yl]ethyl}phenyl)acetohydrazide trihydrochloride], in that order: 7.69 and 9.10.
For `CC(=O)N1CCN(c2ccc(CCc3ccc(CCOC(=O)NN)cc3)nc2)CC1` [Production Example 122, 2-(4-{2-[5-(4-acetylpiperazin-1-yl)pyridin-2-yl]ethyl}phenyl)ethyl hydrazinecarboxylate trihydrochloride], in that order: 8.18 and 8.10.
Consider `CC(=O)N1CCN(c2ccc(CCc3cccc(CNC(=O)NN)c3)nc2)CC1` [Production Example 112, N-(3-{2-[5-(4-acetylpiperazin-1-yl)pyridin-2-yl]ethyl}benzyl)hydrazinecarboxamide trihydrochloride], for which the pIC50 in experiment [1] and in experiment [2] was 9.15 in each case.
For `NNC(=O)Cc1ccc(CCc2ccc(CN3CCOCC3)cc2)cc1` [Production Example 70, 2-(4-{2-[4-(morpholin-4-ylmethyl)phenyl]ethyl}phenyl)acetohydrazide dihydrochloride], the pIC50 in experiment [1] is 7.75; in experiment [2], 8.89.
The like results for `CC(=O)N1CCN(c2ccc(CCc3ccc(COC(=O)NN)cc3)nc2)CC1` [Production Example 108, 4-{2-[5-(4-acetylpiperazin-1-yl)pyridin-2-yl]ethyl}benzyl hydrazinecarboxylate trihydrochloride] were, in that order, 9.05 and 9.10.
Take `CC(=O)N1CCN(c2ccc(CCc3ccc(C(=O)NN)s3)nc2)CC1` [Production Example 116, 5-{2-[5-(4-acetylpiperazin-1-yl)pyridin-2-yl]ethyl}thiophene-2-carbohydrazide]: the figures for the pIC50 in experiment [1] and in experiment [2] were 8.02 and 8.01, respectively.
For the compound `CC(=O)N1CCN(c2ccc(CCc3ccc(CC(=O)NN)cc3)nn2)CC1` [Production Example 99, 2-(4-{2-[6-(4-acetylpiperazin-1-yl)pyridazin-3-yl]ethyl}phenyl)acetohydrazide trihydrochloride], the pIC50 in experiment [1] was 7.87; in experiment [2], 8.60.
As to `CC(=O)N1CCN(c2ccc(CCc3ccc(CNC(=O)NN)cc3F)nc2)CC1` [Production Example 114, N-(4-{2-[5-(4-acetylpiperazin-1-yl)pyridin-2-yl]ethyl}-3-fluorobenzyl)hydrazinecarboxamide trihydrochloride], the pIC50 in experiment [1] was 8.70; in experiment [2] it was 8.92.
On to `NNC(=O)Cc1ccc(CCc2ccc(N3CCCCC3)nc2)cc1` [Production Example 45, 2-{4-[2-(6-piperidin-1-ylpyridin-3-yl)ethyl]phenyl}acetohydrazide trihydrochloride], for which the values for the pIC50 in experiment [1] and in experiment [2] were 7.76 and 8.92, respectively.
In the case of `NNC(=O)Cc1ccc(CCc2csc(N3CCNCC3)n2)cc1` [Production Example 95, 2-{4-[2-(2-piperazin-1-yl-1,3-thiazol-4-yl)ethyl]phenyl}acetohydrazide dihydrochloride], the pIC50 in experiment [1] is 8.20; in experiment [2] it was 8.46.
On to `NNC(=O)Cc1ccc(CCc2ccc(N3CCNCC3)cc2C(F)(F)F)cc1` [Production Example 59, 2-(4-{2-[4-piperazin-1-yl-2-(trifluoromethyl)phenyl]ethyl}phenyl)acetohydrazide trihydrochloride], for which the pIC50 was 7.95 in experiment [1] and 8.21 in experiment [2].
Consider `NNC(=O)Cc1ccc(CCc2cc(N3CCNCC3)ncn2)cc1` [Production Example 106, 2-{4-[2-(6-piperazin-1-ylpyrimidin-4-yl)ethyl]phenyl}acetohydrazide tetrahydrochloride], for which the pIC50 in experiment [1] was 7.72; in experiment [2] it was 8.12.
